Measurements as given in PMC9891369, “Deconvoluting binding sites in amyloid nanofibrils using time-resolved spectroscopy” (Chemical Science, 2023).

Key:
[1] = target: T1, amyloid-β fibrils (Aβ1–40) (Homo sapiens, UniProt P05067); assay: time-resolved photoluminescence titration, two-site non-cooperative fit; assay type: binding; settings: read-out: Values ^a
T1 construct: gene APP; synthetic Aβ1–40, fibrillar

[2] = target: T1, amyloid-β fibrils (Aβ1–40); assay: time-resolved photoluminescence titration, two-site fit; assay type: binding

T1 sequence (P05067 672-711): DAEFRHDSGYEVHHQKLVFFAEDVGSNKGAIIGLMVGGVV

SMILES	Kd [1]	Kd [2]
[Ru+2].c1ccc(-c2ccccn2)nc1.c1ccc(-c2ccccn2)nc1.c1cnc2c(c1)c1nc3nccnc3nc1c1cccnc12 [[Ru(bpy)2(dpqp)]^2+]	2.2 ± 0.5 µM	
[Ru+2].c1ccc(-c2ccccn2)nc1.c1ccc(-c2ccccn2)nc1.c1ccc(-c2ccccn2)nc1 [[Ru(bpy)3]^2+]		4.6 µM
